The structures appear in SMILES notation.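 Growth conditions: 96-well plates. Treatment: test compound, 48 hours, 5 concentrations. Analysis: linear interpolation between bracketing concentrations; unreached endpoints set to highest concentration. GI50 marks 50% less growth.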 Activity calls are given as the source filed them. Cut-off read from the data, not from the text of the source: active = GI50 up to about 1.1 µM and inactive = higher.

The results in this text go back to ChEMBL document CHEMBL1201862, “PubChem BioAssay data set” (2004).

Holding throughout (experiment): NCI tumour cell line growth inhibition, 48 h
The subject of assay [1] is SF-539.
Assay [2] has as its system SN12C.
Assay [3] relates to MCF7.
In assay [4] the test system is OVCAR-3.
Assay [5] has as its system UO-31.
The subject of assay [6] is PC-3.
For assay [7], the system named is MDA-N.
Assay [8] has as its system SK-MEL-28.
Assay [9] relates to OVCAR-4.
The test system of assay [10] is NCI-H522.
The test system of assay [11] is UACC-62.
The subject of assay [12] is SK-MEL-2.
For assay [13], the system named is EKVX.
In assay [14] the test system is ACHN.
The test system of assay [15] is HOP-62.
Assay [16] deals with MOLT-4.
In assay [17] the test system is LOX IMVI.
The test system of assay [18] is CCRF-CEM.
Assay [19] concerns K562.

Take `ClCc1c(-c2ccccc2)nn(-c2ccccc2)c1CCl`: the GI50 in assay [1] is 16.1 µM (inactive); in assay [2], 19.4 µM (inactive); in assay [3], 8.2 µM (inactive); in assay [4], 13.5 µM (inactive); in [5], 20.1 µM (inactive); in [6] it was 9.71 µM (inactive). In addition, the GI50 is 10.7 µM (inactive) in assay [7]; 15.6 µM (inactive) in assay [8]; 1.65 µM (inactive) in assay [9]; 0.165 µM (active) in assay [10]; 7.18 µM (inactive) in assay [11]; 13.2 µM (inactive) in assay [12].
Turning to `O=C1Oc2ccccc2C(=O)/C1=C/NC(=S)NCc1ccccc1`, the GI50 in assay [1] was 43.9 µM (inactive); in assay [2], 56.5 µM (inactive); in [3], > 100 µM (inactive); in [13] it was > 100 µM (inactive); in [4] it was > 100 µM (inactive); in assay [5], 16.2 µM (inactive). Besides, the GI50 in assay [14] is 25.1 µM (inactive); in assay [6] it was 54.3 µM (inactive); in assay [15] it was 57.9 µM (inactive); in [7] it was 50.5 µM (inactive); in assay [8] it was > 100 µM (inactive); in assay [9] it was 73.8 µM (inactive). Besides, the GI50 was 54.3 µM (inactive) in assay [16], 69.3 µM (inactive) in [17] and 19.3 µM (inactive) in assay [12].
As for `CN(c1ccccc1Cl)S(=O)(=O)c1ccccc1[N+](=O)[O-]`, the GI50 in assay [1] was 35.9 µM (inactive); in assay [2] it was 95.7 µM (inactive); in assay [3], > 10 µM (inactive); in assay [13] it was 39.2 µM (inactive); in assay [4], 37.8 µM (inactive); in assay [5], 31.6 µM (inactive). Moreover, the GI50 is > 10 µM (inactive) in assay [14]; 24.7 µM (inactive) in assay [6]; 41.6 µM (inactive) in [15]; 33.9 µM (inactive) in [7]; 39.6 µM (inactive) in assay [8]; > 100 µM (inactive) in [9]. Moreover, the GI50 in [16] was 25.7 µM (inactive); in assay [17] it was 42.6 µM (inactive); in [18], 33.2 µM (inactive); in assay [19], 21.3 µM (inactive); in assay [10], 32.7 µM (inactive); in [11], 27.1 µM (inactive). In assay [12], the GI50 was 96.6 µM (inactive).
Regarding `CC12CCC(C/C1=N\NC(N)=O)C2(C)C` (stereo not drawn), the GI50 in assay [2], in assay [3], in assay [13], in [4], in [5] and in assay [14] was > 100 µM (inactive) in each case. In addition, the GI50 in assay [6], in [15], in assay [7], in [8], in [9] and in [16] was > 100 µM (inactive) throughout. For the same compound, the GI50 in [17], in assay [18], in assay [19], in assay [10], in [11] and in assay [12] was > 100 µM (inactive) in each case.
As for `COc1ccc(N2CCN(c3ccc4c(c3)NCC(=O)N4)CC2)cc1`, the GI50 in assay [1] is 23.6 µM (inactive); in assay [2] it was 70.6 µM (inactive); in assay [3], > 100 µM (inactive); in assay [13], 39.2 µM (inactive); in assay [4], 28.8 µM (inactive); in assay [5], 26.9 µM (inactive). Also, the GI50 in assay [14] is 32.3 µM (inactive); in [6] it was 36.2 µM (inactive); in assay [15], > 100 µM (inactive); in assay [7], > 100 µM (inactive); in [8], > 100 µM (inactive); in assay [9] it was 32.1 µM (inactive). For the same compound, the GI50 in assay [16] is 60.7 µM (inactive); in assay [17], 41.4 µM (inactive); in assay [18] it was 29.7 µM (inactive); in assay [19] it was 28.8 µM (inactive); in assay [10] it was 14.6 µM (inactive); in assay [11], 25.3 µM (inactive). In assay [12], the GI50 is 37.3 µM (inactive).
As for `CC1(C)CC(=O)C(Cc2ccccc2)(Cc2ccccc2)C(=O)C1`, the GI50 in assay [1], in assay [2], in [3], in assay [13], in [5] and in [14] was > 100 µM (inactive) throughout. Besides, the GI50 in assay [6], in [15], in assay [7], in [8], in [9] and in assay [16] was > 100 µM (inactive) in each case. For the same compound, the GI50 in assay [17], in assay [18], in assay [19], in assay [10], in assay [11] and in assay [12] was > 100 µM (inactive) throughout.
As to `CC1(C)OC(=O)C(Cc2ccccc2)(Cc2ccccc2)C(=O)O1`, the GI50 in [1], in [2], in assay [3], in [13], in [5] and in assay [14] was > 100 µM (inactive) throughout. Besides, the GI50 in [6], in assay [15], in assay [7], in assay [8], in assay [9] and in assay [16] was > 100 µM (inactive) in each case. Moreover, the GI50 in assay [17], in assay [18], in assay [19], in [10], in assay [11] and in assay [12] was > 100 µM (inactive) in each case.
Regarding `NC(=O)/C(=C\c1ccncc1)c1cccc2ccccc12`, the GI50 in assay [1] was > 100 µM (inactive); in [2] it was 34.6 µM (inactive); in assay [3] it was > 100 µM (inactive); in assay [13] it was > 100 µM (inactive); in assay [4] it was > 100 µM (inactive); in [5] it was > 100 µM (inactive). In addition, the GI50 in assay [14] is > 100 µM (inactive); in assay [6], > 100 µM (inactive); in assay [15] it was > 100 µM (inactive); in assay [7], 43.1 µM (inactive); in assay [8] it was > 100 µM (inactive); in [9], > 100 µM (inactive). Further, the GI50 in [16] is > 100 µM (inactive); in assay [17], > 100 µM (inactive); in [18] it was > 100 µM (inactive); in assay [19], > 100 µM (inactive); in assay [10], > 100 µM (inactive); in assay [11], 25.3 µM (inactive). The GI50 in [12] was > 100 µM (inactive).
